In US20070203133A1, “Substituted 5,12-diaza-benzoanthracene analogues” (Neurogen Corporation, priority 2004, published 2007):

Key:
human capsaicin receptor = molecular target: T1, human capsaicin receptor (Homo sapiens, UniProt Q8NER1); assay: Calcium mobilization assay, determination of antagonist activity; format: cell-based; conditions: 50% decrease in the fluorescence response of cells expressing human capsaicin receptor exposed to capsaicin
T1 construct: transfected with the pBK-CMV expression construct encoding the full length human capsaicin receptor; expressed in transfected cells; host or cells: HEK293, stably transfected with the pBK-CMV construct
Description: A cDNA encoding full length human capsaicin receptor (SEQ ID NO:1, 2 or 3 of U.S. Pat. No. 6,482,611) is subcloned in the plasmid pBK-CMV (Stratagene, La Jolla, Calif.) for recombinant expression in mammalian cells.
Human embryonic kidney (HEK293) cells are transfected with the pBK-CMV expression construct encoding the full length human capsaicin receptor using standard methods. The transfected cells are selected for two weeks in media containing G418 (400 μg/ml) to obtain a pool of stably transfected cells. Independent clones are isolated from this pool by limiting dilution to obtain clonal stable cell lines for use in subsequent experiments.
Cells transfected with expression plasmids (as described in Example 4) and thereby expressing human capsaicin receptor are seeded and grown to 70-90% confluency in FALCON black-walled, clear-bottomed 96-well plates (#3904, BECTON-DICKINSON, Franklin Lakes, N.J.). The culture medium is emptied from the 96 well plates and FLUO-3 AM calcium sensitive dye (Molecular Probes, Eugene, Oreg.) is added to each well (dye solution: 1 mg FLUO-3 AM, 440 μL DMSO and 440 μl 20% pluronic acid in DMSO, diluted 1:250 in Krebs-Ringer HEPES (KRH) buffer (25 mM HEPES, 5 mM KCl, 0.96 mM NaH2PO4, 1 mM MgSO4, 2 mM CaCl2, 5 mM glucose, 1 mM probenecid, pH 7.4), 50 μL diluted solution per well). Plates are covered with aluminum foil and incubated at 37° C. for 1-2 hours in an environment containing 5% CO2. After the incubation, the dye is emptied from the plates, and the cells are washed once with KRH buffer, and resuspended in KRH buffer.
To measure the ability of a test compound to agonize or antagonize a calcium mobilization response in cells expressing capsaicin receptors to capsaicin or other vanilloid agonist, the EC50 of the agonist capsaicin is first determined. An additional 20 μl of KRH buffer and 1 μl DMSO is added to each well of cells, prepared as described above. 100 μl capsaicin in KRH buffer is automatically transferred by the FLIPR instrument to each well. Capsaicin-induced calcium mobilization is monitored using either FLUOROSKAN ASCENT (Labsystems; Franklin, Mass.) or FLIPR (fluorometric imaging plate reader system; Molecular Devices, Sunnyvale, Calif.) instruments. Data obtained between 30 and 60 seconds after agonist application are used to generate an 8-point concentration response curve, with final capsaicin concentrations of 1 nM to 3 μM. KALEIDAGRAPH software (Synergy Software, Reading, Pa.) is used to fit the data to the equation: y=a*(1/(1+(b/x)^c)) to determine the 50% excitatory concentration (EC50) for the response. In this equation, y is the maximum fluorescence signal, x is the concentration of the agonist or antagonist (in this case, capsaicin), a is the Emax, b corresponds to the EC50 value and c is the Hill coefficient. Determination of Agonist Activity
Test compounds are dissolved in DMSO, diluted in 20 μl KRH buffer so that the final concentration of test compounds in the assay well is between 1 μM and 5 μM, and added to cells prepared as described above. The 96 well plates containing prepared cells and test compounds are incubated in the dark, at room temperature for 0.5 to 6 hours. It is important that the incubation not continue beyond 6 hours. Just prior to determining the fluorescence response, 100 μl capsaicin in KRH buffer at twice the EC50 concentration determined as described above is automatically added by the FLIPR instrument to each well of the 96 well plate for a final sample volume of 200 μl and a final capsaicin concentration equal to the EC50. The final concentration of test compounds in the assay wells is between 1 μM and 5 μM. […] The concentration of antagonist required to provide a 50% decrease, relative to the response observed in the presence of capsaicin and without antagonist, is the IC50 for the antagonist, and is preferably below 1 micromolar, 100 nanomolar, 10 nanomolar or 1 nanomolar.

VR = VR (Homo sapiens, UniProt Q8NER1); conditions: binds to VR with no more than moderate affinity; typical value; cited from earlier work
VR, sequence (Q8NER1 whole entry): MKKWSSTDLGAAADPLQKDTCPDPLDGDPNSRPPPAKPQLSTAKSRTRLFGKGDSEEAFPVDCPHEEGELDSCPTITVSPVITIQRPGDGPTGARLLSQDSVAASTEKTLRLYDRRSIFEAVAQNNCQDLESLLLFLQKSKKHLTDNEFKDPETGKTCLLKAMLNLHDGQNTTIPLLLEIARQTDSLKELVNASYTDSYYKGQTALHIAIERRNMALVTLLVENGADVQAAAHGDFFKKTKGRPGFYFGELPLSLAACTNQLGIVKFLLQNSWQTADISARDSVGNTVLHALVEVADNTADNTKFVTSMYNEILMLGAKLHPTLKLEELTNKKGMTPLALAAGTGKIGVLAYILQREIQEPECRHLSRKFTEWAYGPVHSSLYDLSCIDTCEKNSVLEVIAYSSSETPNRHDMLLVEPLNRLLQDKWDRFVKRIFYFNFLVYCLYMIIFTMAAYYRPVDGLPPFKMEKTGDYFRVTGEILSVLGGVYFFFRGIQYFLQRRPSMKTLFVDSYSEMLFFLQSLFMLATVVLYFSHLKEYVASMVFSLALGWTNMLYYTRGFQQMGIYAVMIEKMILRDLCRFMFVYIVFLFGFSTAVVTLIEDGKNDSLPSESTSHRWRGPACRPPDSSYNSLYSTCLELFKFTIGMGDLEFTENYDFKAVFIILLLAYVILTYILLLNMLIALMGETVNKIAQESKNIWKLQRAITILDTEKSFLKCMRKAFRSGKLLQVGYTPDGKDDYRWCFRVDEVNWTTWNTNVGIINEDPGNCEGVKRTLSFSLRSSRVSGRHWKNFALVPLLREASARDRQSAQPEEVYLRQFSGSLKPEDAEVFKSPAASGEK

T1 sequence (Q8NER1 whole entry): as above

Compound | IC50 (human capsaicin receptor) [nM] | Ki (VR) [µM]
COCc1nc2nc(-c3ncccc3C(F)(F)F)ccc2c2c1Oc1ccc(Cl)cc1N2 [Compound 3, 10-Chloro-6-methoxymethyl-3-(3-trifluoromethyl-pyridin-2-yl)-12H-7-oxa-4,5,12-triaza-benzo[a]anthracene] | ≤ 1000 | –
Cl.Cl.Cl.Cl.Cl.Cl.N.N.N.N.N.N.N.N.N.N.N.N.N.N.[O-2].[O-2].[Ru+3].[Ru+3].[Ru+4] [ruthenium red] | – | ≥ 140
CCCN(CCC)Cc1nc2nc(-c3ncccc3C(F)(F)F)ccc2c2c1Oc1cc(C(F)(F)F)ccc1N2 [Compound 9, Dipropyl-[9-trifluoromethyl-3-(3-trifluoromethyl-pyridin-2-yl)-12H-7-oxa-4,5,12-triaza-benzo[a]anthracen-6-ylmethyl]-amine] | ≤ 1000 | –
COCc1nc2nc(-c3ncccc3C(F)(F)F)ccc2c2c1Oc1cc(C(C)(C)C)ccc1N2 [Compound 5, 9-tert-Butyl-6-methoxymethyl-3-(3-trifluoromethyl-pyridin-2-yl)-12H-7-oxa-4,5,12-triaza-benzo[a]anthracene] | ≤ 1000 | –
COCc1nc2nc(-c3ncccc3C(F)(F)F)ccc2c2[nH]c3ccc(Br)cc3c(=O)c12 [Compound 16, 9-Bromo-6-methoxymethyl-3-(3-trifluoromethyl-pyridin-2-yl)-12H-4,5,12-triaza-benzo[a]anthracen-7-one] | ≤ 1000 | –
CC(C)COCc1nc2nc(-c3ncccc3C(F)(F)F)ccc2c2c1Oc1cc(C(F)(F)F)ccc1N2 [Compound 12, 6-Isobutoxymethyl-9-trifluoromethyl-3-(3-trifluoromethyl-pyridin-2-yl)-12H-7-oxa-4,5,12-triaza-benzo[a]anthracene] | ≤ 1000 | –
Cc1nc2nc(-c3ncccc3C(F)(F)F)ccc2c2c1Oc1cc(C(F)(F)F)ccc1N2 [Compound 10, 6-Methyl-9-trifluoromethyl-3-(3-trifluoromethyl-pyridin-2-yl)-12H-7-oxa-4,5,12-triaza-benzo[a]anthracene] | ≤ 1000 | –
COCc1nc2nc(-c3ncccc3C(F)(F)F)ccc2c2c1C(O)c1cc(Br)ccc1N2 (centres unmarked) [Compound 17, 9-Bromo-6-methoxymethyl-3-(3-trifluoromethyl-pyridin-2-yl)-7,12-dihydro-4,5,12-triaza-benzo[a]anthracen-7-ol] | ≤ 1000 | –
COCc1nc2nc(-c3ncccc3C(F)(F)F)ccc2c2c1Oc1cc(F)ccc1N2 [Compound 13, 9-Fluoro-6-methoxymethyl-3-(3-trifluoromethyl-pyridin-2-yl)-12H-7-oxa-4,5,12-triaza-benzo[a]anthracene] | ≤ 1000 | –

More lines, main results first:

IC50 (human capsaicin receptor) [nM] | Compound | Ki (VR) [µM]
≤ 1000 | COCc1nc2nc(-c3ncccc3C(F)(F)F)ccc2c2c1Oc1cc(C(F)(F)F)ccc1N2 [Compound 1, 6-Methoxymethyl-9-trifluoromethyl-3-(3-trifluoromethyl-pyridin-2-yl)-12H-7-oxa-4,5,12-triaza-benzo[a]anthracene] | –
≤ 1000 | OCc1nc2nc(-c3ncccc3C(F)(F)F)ccc2c2c1Oc1cc(C(F)(F)F)ccc1N2 [Compound 7, [9-Trifluoromethyl-3-(3-trifluoromethyl-pyridin-2-yl)-12H-7-oxa-4,5,12-triaza-benzo[a]anthracen-6-yl]-methanol] | –
≤ 1000 | C[C@@H]1CN(Cc2nc3nc(-c4ncccc4C(F)(F)F)ccc3c3c2Oc2cc(C(F)(F)F)ccc2N3)C[C@H](C)O1 [Compound 8, 6-(2,6-Dimethyl-morpholin-4-ylmethyl)-9-trifluoromethyl-3-(3-trifluoromethyl-pyridin-2-yl)-12H-7-oxa-4,5,12-triaza-benzo[a]anthracene (cis)] | –
≤ 1000 | FC(F)(F)c1ccc2c(c1)Oc1c(Cl)nc3nc(-c4ncccc4C(F)(F)F)ccc3c1N2 [Compound 6, 6-Chloro-9-trifluoromethyl-3-(3-trifluoromethyl-pyridin-2-yl)-12H-7-oxa-4,5,12-triaza-benzo[a]anthracene] | –
≤ 1000 | Cc1nc2cc(-c3ncccc3C(F)(F)F)ccc2c2c1Oc1ccccc1N2 [Compound 14, 6-Methyl-3-(3-trifluoromethyl-pyridin-2-yl)-12H-7-oxa-5,12-diaza-benzo[a]anthracene] | –
≤ 1000 | COCc1nc2nc(-c3ncccc3C(F)(F)F)ccc2c2[nH]c3ccc(Cl)cc3c(=O)c12 [Compound 15, 9-Chloro-6-methoxymethyl-3-(3-trifluoromethyl-pyridin-2-yl)-12H-4,5,12-triaza-benzo[a]anthracen-7-one] | –
≤ 1000 | FC(F)(F)c1ccc2c(c1)Oc1cnc3nc(-c4ncccc4C(F)(F)F)ccc3c1N2 [Compound 11, 9-Trifluoromethyl-3-(3-trifluoromethyl-pyridin-2-yl)-12H-7-oxa-4,5,12-triaza-benzo[a]anthracene] | –
≤ 1000 | COCc1nc2nc(-c3ncccc3C(F)(F)F)ccc2c2c1Oc1cc(S(C)(=O)=O)ccc1N2 [Compound 4, 9-Methanesulfonyl-6-methoxymethyl-3-(3-trifluoromethyl-pyridin-2-yl)-12H-7-oxa-4,5,12-triaza-benzo[a]anthracene] | –
